The record followed here is PubChem BioAssay AID1411 (The Scripps Research Institute Molecular Screening Center, 2008).

Activity calls are given as the source filed them. The rule behind the calls is not given here. Some results are limits rather than exact numbers.

The experiment deals with Signal transducer and activator of transcription 1-alpha/beta (Homo sapiens) (UniProt P42224). As to the kind of experiment: STAT1 transcription blockade – cell-based, NIH 3T3, luciferase reporter, counter-screen for STAT3 inhibitor project, dose response (AID 1411). As to conditions: NIH 3T3 fibroblasts, counterscreen. A general note: A reporter such as luciferase makes a cellular process visible.
Sequence of Signal transducer and activator of transcription 1-alpha/beta (Homo sapiens) (P42224 whole entry, looked up): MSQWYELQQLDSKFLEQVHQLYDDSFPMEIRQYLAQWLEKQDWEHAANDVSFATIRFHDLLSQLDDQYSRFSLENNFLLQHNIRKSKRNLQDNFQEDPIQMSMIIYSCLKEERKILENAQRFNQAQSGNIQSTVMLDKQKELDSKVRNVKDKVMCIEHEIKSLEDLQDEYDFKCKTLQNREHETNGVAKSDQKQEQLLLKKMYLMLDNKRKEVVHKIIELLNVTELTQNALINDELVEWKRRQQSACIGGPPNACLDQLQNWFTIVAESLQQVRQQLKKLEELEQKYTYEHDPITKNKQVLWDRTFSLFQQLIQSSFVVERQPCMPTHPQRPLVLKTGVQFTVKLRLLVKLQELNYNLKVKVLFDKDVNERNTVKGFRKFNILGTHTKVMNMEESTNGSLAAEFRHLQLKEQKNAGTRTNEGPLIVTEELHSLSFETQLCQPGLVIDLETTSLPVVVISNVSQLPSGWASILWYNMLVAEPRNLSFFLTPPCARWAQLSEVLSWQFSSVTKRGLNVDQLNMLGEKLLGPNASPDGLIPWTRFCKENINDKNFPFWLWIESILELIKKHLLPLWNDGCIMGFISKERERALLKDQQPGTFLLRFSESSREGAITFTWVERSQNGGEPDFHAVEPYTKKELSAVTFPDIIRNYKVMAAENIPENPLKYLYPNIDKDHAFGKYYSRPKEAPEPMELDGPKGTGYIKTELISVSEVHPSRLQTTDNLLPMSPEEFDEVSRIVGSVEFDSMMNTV
As to `Cc1csc(NC(=O)c2cc3c(s2)CCCC3)n1`, the IC50 (in general, the point on the concentration scale where inhibition reaches its midpoint) was “inactive”.
Regarding `C[C@H]1O[C@@H](O[C@H]2[C@@H](O)C[C@H](O[C@H]3[C@@H](O)C[C@H](O[C@H]4CC[C@@]5(C)[C@H](CC[C@@H]6[C@@H]5C[C@@H](O)[C@]5(C)[C@@H](C7=CC(=O)OC7)CC[C@]65O)C4)O[C@@H]3C)O[C@@H]2C)C[C@H](O)[C@@H]1O`, the IC50 is > 55.7 µM (inactive).
As for `Cc1ccc2c(C)nc(Nc3nc(CSc4nc5ccccc5[nH]4)cc(=O)[nH]3)nc2c1`, the IC50 was > 55.7 µM (inactive).
As to `COC(=O)c1cccc(NC(=O)CSc2nc3cccnc3n2C)c1`, the IC50 was > 55.7 µM (inactive).
The figure for `Nc1cc(-c2ccc(Br)cc2)nn1Cc1ccccc1` is > 55.7 µM (inactive).
`Cc1nc2ccccc2cc1OCc1ccc(F)cc1`: the IC50 is > 55.7 µM (inactive).
The figure for `CN1/C(=C\C(=O)C[n+]2ccc3ccccc3c2)C(C)(C)c2ccccc21` is > 55.7 µM (inactive); for `c1ccc(C(Cc2nc(-c3ccncc3)no2)c2ccccc2)cc1` it is > 55.7 µM (inactive); for `CN(C)S(=O)(=O)Oc1cccc(C(=O)Nc2ccc(Cl)cc2)c1` it is > 55.7 µM (inactive).
Turning to `CCC(C)(C)c1ccc(OCCCC[n+]2cccc(C)c2)c(C(C)(C)CC)c1`, the IC50 was > 55.7 µM (inactive).
As to `CCOC(=O)C1=C(Cc2ccc(C)cc2)C(=O)c2ccccc2C1=O`, the IC50 is > 55.7 µM (inactive).
The figure for `O=C(CSc1ccc2ccccc2c1)Nc1ccncc1` is > 55.7 µM (inactive).
As to `O=C(Nc1ccc(Cc2ccncc2)cc1)c1ccc(S(=O)(=O)N2CCOCC2)cc1`, the IC50 is > 55.7 µM (inactive).
For `O=C(COc1ccc2ccccc2c1)Nc1ccncc1`, the IC50 is > 55.7 µM (inactive).
With `O=C(Nc1ccc(Oc2ccccc2)cc1)c1cnc2n(c1=O)CCS2`, the IC50 was > 55.7 µM (inactive).
Turning to `Cc1ccc(N2C(=O)c3ccccc3C2O)nc1` (stereo not given), the IC50 entry was “inactive”.
Take `CCCOc1ccc(CSc2nc3ccccc3[nH]2)cc1`: the IC50 is > 55.7 µM (inactive).
Regarding `Oc1ccc(-c2n[nH]c(=S)n2-c2ccc3c(c2)OCCO3)c(O)c1`, the IC50 was > 55.7 µM (inactive).
For `CCCNC(=O)c1ccc(-c2nc3ccccc3s2)s1`, the IC50 result was “inactive”.
With `COc1cccc(-c2cc(C(=O)Nc3cccc(O)c3)no2)c1`, the IC50 entry is “inactive”.
Take `CCN(CC)c1ccc(NC(=O)CN2C(=O)CSc3ncccc32)c(C)c1`: the IC50 is > 55.7 µM (inactive).
For `COc1ccc(CC(=O)Nc2cccc(-c3nnc(-c4cccc(C)c4)o3)c2)cc1OC`, the IC50 entry is “inactive”.
Consider `COc1ccccc1OCC(=O)c1[nH]c(C)c(C(C)=O)c1C`, for which the IC50 was > 55.7 µM (inactive).
In the case of `Cn1c(CN2CCCCC2)nc2cc(NC(=O)c3cccc(Br)c3)ccc21`, the IC50 was > 55.7 µM (inactive).
The figure for `O=C(Nc1ccncc1)c1ccc2c(c1)C(=O)N(C1CCCCC1)C2=O` is > 55.7 µM (inactive); for `COc1cc(OC)cc(C(=O)Nc2ccc(-c3nc4ccccc4o3)cc2)c1` it is > 55.7 µM (inactive); for `Cc1ccsc1/C=C1\CCc2ccccc2C1=O` it is 7.89 µM.
For `Cc1cc(OCC(=O)Nc2ccncc2)cc(C)c1Br` the value was > 55.7 µM (inactive); for `CCc1c(C)c2ccc(OCC(=O)OC(C)C)c(C)c2oc1=O`, > 55.7 µM (inactive).
For `O=C(Nc1cccc(Cl)c1)Nc1ccnc(-c2cccnc2)n1`, the IC50 was > 55.7 µM (inactive).
Regarding `O=C(Nc1ccncc1)c1ccc(-c2ccccc2)cc1`, the IC50 is > 55.7 µM (inactive).
Consider `Cc1nc(CNS(=O)(=O)c2ccc(Oc3ccccc3)cc2)cs1`, for which the IC50 was > 55.7 µM (inactive).
For the compound `C[C@@H]1O[C@@H](O[C@H]2C[C@@H](O)[C@]3(CO)[C@H]4[C@H](O)C[C@]5(C)[C@@H](C6=CC(=O)OC6)CC[C@]5(O)[C@@H]4CC[C@]3(O)C2)[C@H](O)[C@H](O)[C@H]1O`, the IC50 was > 55.7 µM (inactive).
`O=S(=O)(c1ccc2c(c1)OCCO2)N1CCC(c2nc3ccccc3s2)CC1`: the IC50 was > 55.7 µM (inactive).
On to `COc1ccc(/C=N/NC(=S)Nc2cccc(C(=O)O)c2)cc1`, for which the IC50 entry was “inactive”.
The entry for `Cc1nn2cc(-c3ncc(C(F)(F)F)cc3Cl)cnc2c1Br` is “inactive”; for `Cn1c(=O)oc2cc(S(=O)(=O)N3CCCC(C(=O)N4CC=C(c5ccccc5)CC4)C3)ccc21` (stereo not given) it is > 55.7 µM (inactive); for `NNC(=O)c1cccc(COc2ccccc2Br)c1` it is “inactive”.
As for `O=C(Nc1cccc(O)c1)C(=O)Nc1ccccn1`, the IC50 result is “inactive”.
Regarding `Cc1ccc(-n2ncc3c(SCc4cccnc4)ncnc32)c(C)c1`, the IC50 was > 55.7 µM (inactive).
Regarding `O=C(Nc1nc(-c2ccc(Cl)s2)cs1)c1ccncc1`, the IC50 was > 55.7 µM (inactive).
Regarding `Clc1ccc2ncc(-c3nnnn3-c3ccccc3)c(-c3ccccc3)c2c1`, the IC50 was > 55.7 µM (inactive).
On to `CCCCOc1ccc(C(=O)Nc2ccncc2)cc1`, for which the IC50 is > 55.7 µM (inactive).
The figure for `COc1ccc(NS(=O)(=O)c2ccc(NC(=O)c3ccc(N(C)S(C)(=O)=O)cc3)cc2)cc1` is > 55.7 µM (inactive).
As to `COc1ccc(C(=O)Nc2ccc3oc(Cc4ccc(Cl)cc4)nc3c2)cc1OC`, the IC50 was > 55.7 µM (inactive).
Regarding `CCCCCCCc1ccc(-c2ccc(O)cc2)nc1`, the IC50 was > 55.7 µM (inactive).
On to `CN(C)S(=O)(=O)c1ccc(C(=O)Nc2nc(-c3cccs3)cs2)cc1`, for which the IC50 was > 55.7 µM (inactive).
Turning to `O=C(COC(=O)c1n[nH]c2ccccc12)Nc1ccc(S(=O)(=O)N2CCCC2)cc1`, the IC50 was > 55.7 µM (inactive).
For `CN1/C(=C\C(=O)C[n+]2ccc(C(=O)c3ccccc3)cc2)C(C)(C)c2ccccc21` the value was > 55.7 µM (inactive); for `COc1ccc2nc3c(cc2c1)c(NC(=O)c1cccs1)nn3CC(C)C`, > 55.7 µM (inactive); for `CCCOc1ccc(/C=N/NC(=S)Nc2ccccc2[N+](=O)[O-])c(O)c1`, > 55.7 µM (inactive).
For `Nc1c(C(=O)NC2CCCCC2)nsc1C(=O)OCC(=O)NC1CCCCC1` the value was > 55.7 µM (inactive).
Take `O=C(Nc1ccn(Cc2ccccc2F)n1)c1ccc(COc2ccccc2Cl)cc1`: the IC50 is > 55.7 µM (inactive).
Turning to `CCOC(=O)c1oc2ccc(S(=O)(=O)Nc3ccc4c(c3)n(C)c(=O)n4C)cc2c1C`, the IC50 result was “inactive”.
Regarding `COc1ccc(-c2nn(C)c(=O)c3ccccc23)cc1NC(=O)COc1ccc(C)cc1`, the IC50 result is “inactive”.
On to `CC(=O)c1ccc(N=Nc2ccc(C)cc2)cc1`, for which the IC50 result is “inactive”.
As to `COc1ccc(Br)cc1/C(C)=N/NC1=NCCN1`, the IC50 was > 55.7 µM (inactive).
Take `O=C1CCCN1c1ccc(S(=O)(=O)N2CCC(c3ccccc3)CC2)cc1`: the IC50 is > 55.7 µM (inactive).
For `Cc1ccc(-c2cn3cc([N+](=O)[O-])ccc3n2)cc1`, the IC50 is > 18.6 µM (inactive).
For the compound `CC(=O)N1CCc2cc(S(=O)(=O)NC3CCCc4ccccc43)ccc21` (stereo not given), the IC50 is > 55.7 µM (inactive).
As for `CSc1ccc(NC(=O)N2CCN(c3nc4ccccc4s3)CC2)cc1`, the IC50 is > 55.7 µM (inactive).
For `c1ccc(CC2CCN(c3ncnc4sccc34)CC2)cc1`, the IC50 is > 55.7 µM (inactive).
`Cc1cc(C)n(Cc2ccc(NC(=O)c3ccc(COc4ccccc4Br)cc3)cc2)n1`: the IC50 is > 55.7 µM (inactive).
With `Cc1cccc(N2CCN(C(=O)CSCc3c(C)noc3C)CC2)c1C`, the IC50 is > 55.7 µM (inactive).
As for `CNC(=O)Oc1cccc(-c2cn3cc(Cl)ccc3n2)c1`, the IC50 result was “inactive”.
For `O=C(Nc1cccc(O)c1)c1noc2c1CCc1ccccc1-2`, the IC50 entry is “inactive”.
With `O=C(Nc1nccs1)c1ccc(S(=O)(=O)NCC2CCCCC2)cc1`, the IC50 is > 55.7 µM (inactive).
The figure for `O=C(Nc1cccc(S(=O)(=O)Nc2ccccc2Cl)c1)c1ccc(Cl)nc1` is > 55.7 µM (inactive).
In the case of `C[C@H]1CCC[C@@H](O)CCC/C=C/c2cc(O)cc(O)c2C(=O)O1`, the IC50 was > 55.7 µM (inactive).
On to `Clc1ccc(CSc2nnc(Cn3cnc4ccccc43)o2)cc1`, for which the IC50 was > 55.7 µM (inactive).
For the compound `Cc1cc(NC(=O)c2cc(-c3cccs3)on2)nn1Cc1ccc(Cl)cc1`, the IC50 is > 55.7 µM (inactive).
For the compound `COc1ccc2cc(-c3cc(C(=O)OCC(=O)Nc4c(C)n(C)n(-c5ccccc5)c4=O)c4ccccc4n3)ccc2c1`, the IC50 result is “inactive”.
As to `COc1ccc(C)cc1-n1nnnc1SCn1nnc2ccccc2c1=O`, the IC50 was > 55.7 µM (inactive).
For the compound `CC1CCCCC1NS(=O)(=O)c1ccc(S(=O)(=O)NCc2ccncc2)cc1` (stereo not given), the IC50 is > 55.7 µM (inactive).
In the case of `O=C(NC1CC1)c1cc2c(s1)-c1ccccc1OC2`, the IC50 was > 55.7 µM (inactive).
The figure for `CCOc1cc(C(=S)N2CCOCC2)ccc1OS(=O)(=O)c1ccc(NC(C)=O)cc1` is > 55.7 µM (inactive).
For `Cc1ccc(Cl)cc1N1CCN(C(=O)COc2ccc(S(=O)(=O)NC(C)C)cc2)CC1` the value was > 55.7 µM (inactive).
As to `COC(=O)c1nn(-c2ccc3c(c2)CCN3C(C)=O)cc1O`, the IC50 was 9.87 µM.
With `Cc1nc2ccccc2cc1OCc1ccccc1`, the IC50 is > 55.7 µM (inactive).
Take `CC(C)Cn1c(N)c(C(=O)CSc2ccccc2)c(=O)n(C)c1=O`: the IC50 is > 55.7 µM (inactive).
For `Cc1nc2sccn2c1-c1csc(NCc2ccccc2)n1`, the IC50 was > 55.7 µM (inactive).
As for `O=C1C2C3c4ccccc4C(c4ccccc43)[C@@H]2c2nc3ccccc3n21` (stereo not given in full), the IC50 was > 55.7 µM (inactive).
The figure for `CC1CCC2C(=O)N(c3ccccc3OC(=O)c3ccccc3)C(=O)C2C1` (stereo not given) is > 55.7 µM (inactive).
The figure for `O=C(C1CCN(c2nc3ccc(Br)cc3s2)CC1)N1CCC2(CC1)OCCO2` is > 55.7 µM (inactive); for `CCOc1ncccc1C(=O)OCC(=O)Nc1ccc(-c2nc3ccc(C)cc3s2)cc1` it is “inactive”.
